Like-named read-outs stand apart in the source and are kept apart here.
Legend:
[1] = type: in vivo, cynomolgus monkeys
Protocol: Dosing. Twelve experimentally naive cynomolgus monkeys were assigned to four groups of three animals each. Prior to dosing, each animal was lightly sedated with a combination of ketamine (1 0 mg/kg) and diazepam (0.5 mg/kg), and a catheter was introduced into the femoral artery for recording central arterial pressure. Monkeys were given a single intravenous infusion of 5, 20, or 50 mg AR177/kg or saline over ten minutes through a cephalic vein catheter using a Harvard infusion pump. Arterial blood samples were drawn at −10, +10, +20, +40, +60 and +120 minutes relative to the initiation of infusion into EDTA-containing tubes for hematology, complement factors, coagulation assay, serum chemistry, and plasma AR177 determination. At 24 hours post-infusion, blood was drawn via the femoral vein into EDTA-containing tubes for these same parameters. The concentration of AR177 in dosing solutions was confirmed post experiment by absorbance at 280 nm on a spectrophotometer. For the determination of AR177 by HPLC, the plasma fraction was obtained by low speed centrifugation of blood, and stored at −20° C. until used. Electrocardiograms (ECGs), central pressure, and heart rate were recorded continuously for 120 minutes following the initiation of doing. Table E-1 summarizes the study design. The animals were observed twice daily pharmacotoxic signs and general health beginning two days before dosing and for seven days following dosing. The monkeys were not necropsied at the end of the study.

HIV-1DV = test: Acute infection of primary human macrophages (intracellular p24); type: cell-based
HIV-1RF = test: HeLa-CD4-LTR-β-galactosidase cell virus infection assay; type: cell-based
[2] = set-up: species or system cynomolgus monkeys; conditions: cynomolgus monkey, in vivo
Protocol: Hematology and coagulation parameters. Hematology and coagulation parameters were determined 9-11 days prior to the start of the study, just prior to administering doses 1 (day 1) and 12 (day 23), five minutes after dosing (coagulation only), 30 minutes and 4 hours following dosing, one day after the 12th dose (day 24), and in recovery monkeys at sacrifice (day 37). The following were determined: red blood cell count and morphology, total and differential while blood cells, hemoglobin, hematocrit, prothrombin time, fibrinogen, mean cell hemoglobin, mean corpuscular volume, mean corpuscular hemoglobin concentration, platelet count, activate partial thromboplastin time, and D-dime. Hematology was determined at Sierra Nevada Laboratories (Reno, Nev.).

[3] = target: T1, HIV-1 integrase catalytic core IN50-212 (Human immunodeficiency virus type 1 group M subtype B, UniProt P12497); test: Disintegration assay, IN50-212; type: biochemical; conditions: IN50-212, 3 μM
T1 construct: purchased gift of Drs; T. Jenkins and R. Craigie, NIDDK, NIH (not bought)

Substance: 5′-gtggtgggtgggtgggt-3′ [T30177] (GTGGTGGGTGGGTGGGT; phosphorothioate termini, further chemistry not given here)
- emesis during the infusion ([1]; 20 mg/kg): all of the monkeys
- emesis during the infusion ([1]; 50 mg/kg): two of the three animals
- blood pressure, heart rate, electrocardiographic activity ([1]; 5, 20, 50 mg/kg): No clearly treatment-related changes
- mortality ([1]; up to 50 mg/kg): no animals died
- IC50 virus-induced cytopathogenicity (Punta Toro virus; Punta Toro virus): >200 µg/mL
- MCC minimum concentration altering normal cell morphology (Punta Toro virus; Punta Toro virus assay): >200 μg/mL
- IC50 virus-induced cytopathogenicity (Semliki forest virus; Semliki forest virus): >200 µg/mL
- MCC minimum concentration altering normal cell morphology (Semliki forest virus; Semliki forest virus assay): ≧200 μg/mL

Substance: 5′-gtggtgggtgggtgggt-3′ (GTGGTGGGTGGGTGGGT; phosphorothioate termini, further chemistry not given here) [T30177, pPT version of parent compound I100-15, 17 mer]
- HIV-1 replication in macrophages (HIV-1DV): significantly inhibited HIV-1 replication in macrophages
- IC50 (HIV-1RF; HIV-1RF, read-out: IC50 β-galactosidase production, virus infection assay): 9 nM
- direct effect on β-galactosidase enzyme activity (HIV-1RF; up to 10 μM, control experiment): no observable direct effect
- eosinophils [2]: acute decrease in eosinophils
- lymphocytes [2]: acute and transient increase in lymphocytes
- IC50 virus-induced cytopathogenicity (Coxsackie virus (B4); Coxsackie virus (B4)): >200 µg/mL
- MCC minimum concentration altering normal cell morphology (Coxsackie virus (B4); Coxsackie virus (B4) assay): ≧400 μg/mL
- inhibition of disintegration [3]: ≤ 30%

Reference: US6355785B1, “Guanosine-rich oligonucleotide integrase inhibitors” (Aronex Pharmaceuticals, Inc., priority 1993, dated 2002)
